Structures can show the parent of a compound that is named as a salt. Where two headings read alike, the source gives them in different places.
Columns and labels:
[1] = biological target: T1, α1A Human Adrenergic Receptor (Homo sapiens, UniProt P25100); experiment: Equilibrium competition binding, [3H] prazosin, membranes of transfected LM(tk-) cells
T1 construct: expressed in transfected cells; host or cells: LM(tk-) cells
T1 sequence (P25100 1-572): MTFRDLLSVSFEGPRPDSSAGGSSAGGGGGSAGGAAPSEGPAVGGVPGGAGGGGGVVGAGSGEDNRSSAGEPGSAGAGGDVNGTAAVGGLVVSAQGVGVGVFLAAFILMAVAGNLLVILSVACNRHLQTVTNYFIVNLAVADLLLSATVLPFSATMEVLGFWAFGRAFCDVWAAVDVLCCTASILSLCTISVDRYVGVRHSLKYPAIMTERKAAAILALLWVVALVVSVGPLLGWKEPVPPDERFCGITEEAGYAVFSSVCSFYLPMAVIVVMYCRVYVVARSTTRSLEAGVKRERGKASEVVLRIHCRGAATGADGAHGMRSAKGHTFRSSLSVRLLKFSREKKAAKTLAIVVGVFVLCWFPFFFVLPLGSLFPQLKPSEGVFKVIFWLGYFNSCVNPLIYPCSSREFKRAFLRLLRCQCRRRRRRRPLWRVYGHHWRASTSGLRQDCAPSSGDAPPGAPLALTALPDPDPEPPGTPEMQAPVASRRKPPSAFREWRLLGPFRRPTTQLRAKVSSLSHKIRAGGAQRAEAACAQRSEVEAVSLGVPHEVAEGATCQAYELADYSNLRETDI
Procedure: (§1) Binding and functional assays were performed using stably transfected human alpha adrenergic receptors. Equilibrium competition binding assays were performed with membrane preparations from cultured LM(tk-) cells stably transfected with the cloned human adrenoceptor subtypes except for α2b, which was expressed in Y-1 cells, using [^3H] prazosin for α1 receptors and [^3H] rauwolscine for α2 receptors.
(§2) Transfected cells from culture flasks were scraped into 5 ml of 5 mM Tris-HCl, 5 mM EDTA, pH 7.5, and lysed by sonication. The cell lysates were centrifuged at 1000 rpm for 5 min at 4° C., and the supernatant was centrifuged at 30,000×g for 20 min at 4° C. The pellet was suspended in 50 mM Tris-HCl, 1 mM MgCl2, and 0.1% ascorbic acid at pH 7.5. Binding of α2 antagonist [^3H] rauwolscine ([…]) to membrane preparations of LM(tk-) cells was done in a final volume of 0.25 ml and incubated at 37° C. for 20 min. Nonspecific binding was determined in the presence of 10 μM phentolamine. The reaction was stopped by filtration through GF/B filters using a cell harvester.
(§3) Stable cell lines were selected as described above.

[2] = biological target: T2, α1B Human Adrenergic Receptor (Homo sapiens, UniProt P35368); experiment: as above; conditions: cloned human receptor, [3H] prazosin
T2 construct: The entire coding region of α1B(1563 bp); expressed in transfected cells; host or cells: LM(tk-) cells
T2 sequence (P35368 1-520): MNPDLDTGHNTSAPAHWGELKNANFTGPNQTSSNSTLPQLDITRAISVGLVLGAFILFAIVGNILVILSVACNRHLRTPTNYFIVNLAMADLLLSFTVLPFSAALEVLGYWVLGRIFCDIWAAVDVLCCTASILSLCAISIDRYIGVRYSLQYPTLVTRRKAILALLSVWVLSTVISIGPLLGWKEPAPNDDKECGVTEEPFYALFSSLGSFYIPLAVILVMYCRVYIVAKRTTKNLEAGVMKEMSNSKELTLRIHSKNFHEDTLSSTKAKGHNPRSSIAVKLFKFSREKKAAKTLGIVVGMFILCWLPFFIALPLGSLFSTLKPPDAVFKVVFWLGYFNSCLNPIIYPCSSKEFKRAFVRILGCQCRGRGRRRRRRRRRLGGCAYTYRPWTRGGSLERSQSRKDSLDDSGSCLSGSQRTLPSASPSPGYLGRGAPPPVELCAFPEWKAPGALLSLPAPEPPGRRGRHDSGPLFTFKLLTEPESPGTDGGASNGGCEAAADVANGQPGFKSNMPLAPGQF
Procedure: as §1, §2
The construct involved ligating the full-length containing EcoRI brainstem cDNA fragment from ZapII into the expression vector. The stable cell lines were selected as described above.

[3] = biological target: T3, α2C Human Adrenergic Receptor (Homo sapiens, UniProt P18825); assay type: cell-based; parameters: The entire coding region of α2C (1383 bp), including 2 bp of 5′ UT and 400 bp of 3′ UT; expressed in transfected cells; host or cells: LM(tk-) cells; conditions: for I.A Alpha-2 C: functional cAMP assay
T3 sequence (P18825 1-462): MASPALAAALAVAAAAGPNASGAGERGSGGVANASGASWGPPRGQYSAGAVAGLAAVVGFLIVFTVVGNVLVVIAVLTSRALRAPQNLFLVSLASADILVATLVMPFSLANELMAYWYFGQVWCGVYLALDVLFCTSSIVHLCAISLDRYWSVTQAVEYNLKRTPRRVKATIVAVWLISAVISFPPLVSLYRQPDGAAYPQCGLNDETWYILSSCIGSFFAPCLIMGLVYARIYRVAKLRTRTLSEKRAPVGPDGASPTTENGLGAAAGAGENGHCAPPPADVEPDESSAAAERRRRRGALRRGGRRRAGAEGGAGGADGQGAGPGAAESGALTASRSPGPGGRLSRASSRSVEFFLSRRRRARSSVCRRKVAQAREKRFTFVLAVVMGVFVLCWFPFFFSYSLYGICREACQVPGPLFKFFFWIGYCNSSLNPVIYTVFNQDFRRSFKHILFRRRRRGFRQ
Procedure: as §1
The insert housing this coding region was an @ 1.8 kb Ncol/EcoRI human spleen genomic fragment which was end-blunted by either T4 polymerase or Klenow fragment of DNA polymerase. Stable cell lines were selected as described above.
(§4) The agonist activity (expressed as pEC50) was measured as a function of the ability to inhibit the forskolin-stimulated synthesis of cyclic adenosine monophosphate (cAMP). The stably transfected cells were incubated in Ham's F10 with 5 mM theophylline, 10 mM HEPES, 10 μM pargyline, and/or appropriate concentrations of forskolin for 20 min at 37° C. in 5% CO2. The tested compounds were then added to a final concentration of 0.001 nM to 1 μM and incubated for an additional 15 min at 37° C. in 5% CO2. The medium was aspirated and the reaction was stopped by the addition of 100 mM HCl . […] The plates are stored at 4° C. for 15 min and assayed to determine the linear concentration of cAMP. The appropriate dilution is interpolated from the standard curve of cold cAMP. The assessment of cAMP formation is determined by radioimmunoassay (cAMP radioimmunoassay kit; Advanced Magnetics, Cambridge, Mass.). Radioactivity was quantified using a Packard COBRA Auto Gamma counter, equipped with data reduction software.

[4] = biological target: T3, α2C Human Adrenergic Receptor; experiment: Equilibrium competition binding, [3H] rauwolscine, membranes of transfected LM(tk-) cells
[5] = biological target: T4, α2B Human Adrenergic Receptor (Homo sapiens, UniProt P18089); assay type: cell-based
T4 construct: expressed in transfected cells; host or cells: Y-1 cells
T4 sequence (P18089 1-450): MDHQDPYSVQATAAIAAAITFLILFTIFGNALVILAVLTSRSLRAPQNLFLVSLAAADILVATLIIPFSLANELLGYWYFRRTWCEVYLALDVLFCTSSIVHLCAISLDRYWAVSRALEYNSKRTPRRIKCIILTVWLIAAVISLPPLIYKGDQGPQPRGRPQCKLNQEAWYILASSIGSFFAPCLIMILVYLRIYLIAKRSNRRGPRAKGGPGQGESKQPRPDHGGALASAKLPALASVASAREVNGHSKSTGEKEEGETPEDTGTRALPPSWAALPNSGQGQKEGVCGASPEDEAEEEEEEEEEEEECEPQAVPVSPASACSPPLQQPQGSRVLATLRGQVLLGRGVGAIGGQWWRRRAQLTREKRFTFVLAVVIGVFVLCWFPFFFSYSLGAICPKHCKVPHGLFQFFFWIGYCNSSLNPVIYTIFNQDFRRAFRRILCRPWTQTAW
Procedure: as §1, §3, §4

[6] = biological target: T4, α2B Human Adrenergic Receptor; experiment: Equilibrium competition binding, [3H] rauwolscine, membranes of transfected Y-1 cells
Procedure: as §1, §3, §2

[7] = cloned human receptor, [3H] rauwolscine, read-out: pKi Alpha-2 B (converted)
[8] = inhibition of forskolin-stimulated cAMP, NA: Not Active, read-out: pEC50 Alpha-2 C (converted)

| SMILES | melting point [°C] | I.A Alpha-2 C [3] | Ki [4] [nM] | Ki [6] [nM] | further results |
| --- | --- | --- | --- | --- | --- |
| c1nc2ccc(NC3=NCCN3)cc2[nH]1 (as salt: fumarate) [Example 1, 5-(2-Imidazolin-2-ylamino)Benzimidazole] | 196 to 198 |  |  |  |  |
| Brc1c(NC2=NCCN2)ccc2nc[nH]c12 (as salt: fumarate) [Example 2, 4-Bromo-5-(2-imidazolin-2-ylamino)Benzimidazole] | 199 to 202 |  |  |  |  |
| Clc1c(NC2=NCCN2)ccc2nc[nH]c12 (as salt: fumarate) [Example 3, 4-Chloro-5-(2-imidazolin-2-ylamino)Benzimidazole] | 207 to 208 |  |  |  |  |
| Ic1c(NC2=NCCN2)ccc2nc[nH]c12 (as salt: fumarate) [Example 5, 4-Iodo-5-(2-imidazolin-2-ylamino)Benzimidazole] | 256 |  |  |  |  |
| CCc1c(NC2=NCCN2)ccc2nc[nH]c12 (as salt: fumarate) [Example 6, 4-Ethyl-5-(2-imidazolin-2-ylamino)Benzimidazole] | 238 to 239 |  |  |  |  |
| CCCCc1c(NC2=NCCN2)ccc2nc[nH]c12 (as salt: fumarate) [Example 8, 4-n-Butyl-5-(2-imidazolin-2-ylamino)Benzimidazole] | 96 |  |  |  |  |
| Clc1cccc(Cl)c1N=C1NCCN1 [Clonidine, reference compound] |  |  |  |  | Ki ([1]; cloned human receptor, [3H] prazosin, read-out: pKi Alpha-1 A (converted)): 513 nM; pKi Alpha-1 B [2]: 5.62 |
| CCc1c(NC2=NCCN2)ccc2nc[nH]c12 [Example 6, 4-Ethyl-5-(2-imidazolin-2-ylamino)Benzimidazole] |  | 1.00 | 47.9 | 22.4 | EC50 [3]: 3.98 nM; EC50 [5]: 22.4 nM; I.A Alpha-2 B [5]: 1.00 |
| CCCn1cnc2cc(NC3=NCCN3)ccc21 [Example 13, 1-Propyl-5-(2-imidazolin-2-ylamino)Benzimidazole] |  |  | 398 | 363 | Ki [1]: 10500 nM; Ki ([2]; read-out: pKi Alpha-1 B (converted)): 93300 nM |
| CC(C)n1cnc2c(I)c(NC3=NCCN3)ccc21 [Example 19, 1-lsopropyl-4-Iodo-5-(2-imidazolin-2-ylamino)Benzimidazole] |  |  | 129 |  | Ki [6, 7]: 214 nM |
| Brc1c(NC2=NCCN2)ccc2c1ncn2CC1CCCCC1 [Example 30, 1-Cyclohexylmethyl-4-bromo-5-(2-imidazolin-2-ylamino)Benzimidazole] |  |  | 309 |  | Ki [6, 7]: 166 nM |
| COc1cccc(Cn2cnc3c(Br)c(NC4=NCCN4)ccc32)c1 [Example 37, 1-(3-Methoxybenzyl)-4-bromo-5-(2-imidazolin-2-ylamino)Benzimidazole] |  | 0.50 | 117 |  | EC50 [3, 8]: 52.5 nM; Ki [6, 7]: 81.3 nM |
| Brc1c(NC2=NCCN2)ccc2nc(C3CC3)[nH]c12 [Example 47, 2-Cyclopropyl-4-bromo-5-(2-imidazolin-2-ylamino)Benzimidazole] |  |  | 224 | 44.7 | EC50 [3]: 45.7 nM; EC50 [5]: 115 nM |
| Cc1cc2nc[nH]c2cc1NC1=NCCN1 [Example 49, 6-Methyl-5-(2-imidazolin-2-ylamino)Benzimidazole] |  | 1.00 |  | 36.3 |  |
| Brc1cc(NC2=NCCN2)cc2[nH]cnc12 [Example 51, 7-Bromo-5-(2-imidazolin-2-ylamino)Benzimidazole] |  | 1.00 | 123 | 27.5 | EC50 [3]: 4.27 nM; EC50 [5]: 89.1 nM; I.A Alpha-2 B [5]: 0.60 |
| Cc1cc(NC2=NCCN2)cc2[nH]cnc12 [Example 52, 7-Methyl-5-(2-imidazolin-2-ylamino)Benzimidazole] |  | 1.00 |  | 77.6 | EC50 [5]: 72.4 nM; I.A Alpha-2 B [5]: 0.80 |
| CCc1cc(NC2=NCCN2)cc2[nH]cnc12 [Example 55, 7-Ethyl-5-(2-imidazolin-2-ylamino)Benzimidazole] |  | 0.80 | 427 | 209 | EC50 [3, 8]: 162 nM |
| c1ccc(-c2cc(NC3=NCCN3)cc3[nH]cnc23)cc1 [Example 57, 7-Phenyl-5-(2-imidazolin-2-ylamino)Benzimidazole] |  |  | 135 |  | EC50 [3, 8]: 15.1 nM; I.A Alpha-2 B ([5]; functional cAMP assay): 1.00; EC50 ([5]; inhibition of forskolin-stimulated cAMP, NA: Not Active, read-out: pEC50 Alpha-2 B (converted)): 8510 nM; Ki [6, 7]: 60.3 nM |

Reference: patent US6403626B1, “Benzimidazole derivatives” (Synaptic Pharmaceutical Corporation, priority 1994, dated 2002)
